Tests used:
[1] = tested on: patients with type 1 diabetes receiving insulin therapy (overall and CKD cohorts); experiment: inTandem3 phase 3, double-blind trial, sotagliflozin 400 mg per day vs placebo for 24 weeks; type: in vivo, human; settings: for placebo-adjusted systolic blood pressure, least-squared mean change: after 16 weeks; for DKA, HR (95% CI) / Severe hypoglycemia, HR (95% CI): 400 mg/day vs placebo
Method: The in Tandem3 study was a phase 3, double-blind trial conducted at 133 centers worldwide. In the study, 1402 patients with type 1 diabetes who were receiving treatment with insulin therapy (pump or injections) were randomly assigned to receive sotagliflozin (400 mg per day) or placebo for 24 weeks. The primary end point was a glycated hemoglobin level lower than 7.0% at week 24 with no episodes of severe hypoglycemia or diabetic ketoacidosis after randomization. Secondary end points included the change from baseline in glycated hemoglobin level, weight, systolic blood pressure, and mean daily bolus dose of insulin. Specific details of the study were reported in Garg, S. K., et al., “Effects of Sotagliflozin Added to Insulin in Patients with Type 1 Diabetes” N. Engl. J. Med. 2017:377:2337-48.
The rate of severe hypoglycemia was similar in the sotagliflozin group and the placebo group (3.0% [21 patients] and 2.4% [17 patients], respectively). […] The rate of DKA was higher in the sotagliflozin group than in the placebo group (3.0% [21 patients] and 0.6%, respectively). Id. at 2337.
For this invention, data from CKD patients were compared to those of the overall cohort. As shown below, 16% of patients had CKD at baseline: […]

T1D patients = settings: cited from earlier work
[2] = 400 mg per day, overall population
[3] = 400 mg/day, CKD Cohort N = 115, 24 weeks

**Q.** With CCOc1ccc(Cc2cc([C@@H]3O[C@H](SC)[C@@H](O)[C@H](O)[C@H]3O)ccc2Cl)cc1 [sotagliflozin, (2S,3R,4R,5S,6R)-2-(4-chloro-3-(4-ethoxybenzyl)phenyl)-6-(methylthio)tetrahydro-2H-pyran-3,4,5-triol] as the compound, how does the “placebo-adjusted systolic blood pressure, least-squared mean change” value ([1]; 400 mg per day, CKD group, SE=1.81) read?
**A.** Its value is −7.1 mm Hg.

**Q.** And the “placebo-adjusted change in HbA1C, least-squared mean” value ([1]; 400 mg per day, CKD group, after 24 weeks, SE=0.120)?
**A.** Its value is −0.46%.

**Q.** What about the “placebo-adjusted change in body weight, least-squared mean” value ([1]; 400 mg per day, CKD group, after 24 weeks, SE=0.464) of the same compound?
**A.** Its value is -2.82 kg.

**Q.** And the “number of patients achieving the primary end point” value ([1]; 400 mg per day, of 699 patients)?
**A.** Its value is 200 patients.

**Q.** And the “mean daily bolus dose of insulin, least-squares mean change from baseline, difference vs placebo” value [1, 2]?
**A.** Its value is −2.8 units per day.

**Q.** What about the “proportion of patients achieving the primary end point (glycated hemoglobin lower than 7.0% at week 24 with no severe hypoglycemia or DKA)” value [1, 2] of the same compound?
**A.** The value was 28.6%.

**Q.** What about the “systolic blood pressure, least-squares mean change from baseline, difference vs placebo” value [1, 2] of the same compound?
**A.** The value was −3.5 mm Hg.

**Q.** And the “glycated hemoglobin, least-squares mean change from baseline, difference vs placebo” value ([1]; 400 mg per day, overall population, 24 weeks)?
**A.** The value was −0.46 percentage points.

**Q.** What about the “placebo-adjusted systolic blood pressure, least-squared mean change” value ([1]; 400 mg per day, total, overall population, SE=0.57) of the same compound?
**A.** The value was −3.8 mm Hg.

**Q.** And the “placebo-adjusted change in body weight, least-squares mean” value ([1]; 400 mg per day, total, overall population, after 24 weeks)?
**A.** The value was -2.98 kg.

**Q.** And the “placebo-adjusted change in HbA1C, least-squared mean” value ([1]; 400 mg per day, total, overall population, after 24 weeks, SE=0.042)?
**A.** The value was −0.46%.

**Q.** And the “DKA, HR (95% CI)” value ([1]; CKD Cohort, 24 weeks)?
**A.** The value was 3.5.

**Q.** What about the “Severe hypoglycemia, HR (95% CI)” value ([1]; CKD Cohort, 24 weeks) of the same compound?
**A.** The value was 1.7.

**Q.** And the “DKA, HR (95% CI)” value ([1]; Overall Cohort, 24 weeks)?
**A.** The value was 5.5.

**Q.** What about the “Severe hypoglycemia, HR (95% CI)” value ([1]; Overall Cohort, 24 weeks) of the same compound?
**A.** The value was 1.3.

**Q.** What about the “DKA, %” value [1, 3] of the same compound?
**A.** Its value is “(2.6) %”.

**Q.** What about the “Severe hypoglycemia, %” value [1, 3] of the same compound?
**A.** The value was “(7.0) %”.

**Q.** And the “rate of documented hypoglycemia with a blood glucose level of 55 mg per deciliter (3.1 mmol per liter) or below” value ([1]; sotagliflozin group vs placebo group)?
**A.** The value was “significantly lower”.

**Q.** What about the albuminuria (T1D patients) of the same compound?
**A.** The albuminuria was “reduction in albuminuria”.

**Q.** And the blood pressure (T1D patients)?
**A.** Its blood pressure is “lowered blood pressure”.

**Q.** And the eGFR (T1D patients)?
**A.** Its eGFR is “acute change in eGFR”.

**Q.** And the hemoconcentration (T1D patients)?
**A.** Its hemoconcentration is “induced mild hemoconcentration”.

**Q.** And the “risk of diabetic ketoacidosis (DKA)” value (T1D patients)?
**A.** Its value is “increased”.

Source: US20250108032A1, “METHODS OF TREATING TYPE 1 DIABETES AND KIDNEY DISEASE” (LEXICON PHARMACEUTICALS, INC., priority 2023, published 2025)
